Assay results taken from patent US8455469B2, “Use of norgestimate as a selective inhibitor of TRPC3, TRPC6 and TRPC7 ion channels” (Sanofi, priority 2007, dated 2013).

Key:
TRPC3 = biological target: T1, TRPC3 (Homo sapiens, UniProt Q13507); assay: FLIPR Ca2+ influx measurement, OAG-activated TRPC3 HEK293 cells; assay type: cell-based; conditions: 30 μM OAG
T1 construct: expressed in transfected cells; host or cells: HEK293 (inducible expression)
T1 sequence (Q13507 1-921): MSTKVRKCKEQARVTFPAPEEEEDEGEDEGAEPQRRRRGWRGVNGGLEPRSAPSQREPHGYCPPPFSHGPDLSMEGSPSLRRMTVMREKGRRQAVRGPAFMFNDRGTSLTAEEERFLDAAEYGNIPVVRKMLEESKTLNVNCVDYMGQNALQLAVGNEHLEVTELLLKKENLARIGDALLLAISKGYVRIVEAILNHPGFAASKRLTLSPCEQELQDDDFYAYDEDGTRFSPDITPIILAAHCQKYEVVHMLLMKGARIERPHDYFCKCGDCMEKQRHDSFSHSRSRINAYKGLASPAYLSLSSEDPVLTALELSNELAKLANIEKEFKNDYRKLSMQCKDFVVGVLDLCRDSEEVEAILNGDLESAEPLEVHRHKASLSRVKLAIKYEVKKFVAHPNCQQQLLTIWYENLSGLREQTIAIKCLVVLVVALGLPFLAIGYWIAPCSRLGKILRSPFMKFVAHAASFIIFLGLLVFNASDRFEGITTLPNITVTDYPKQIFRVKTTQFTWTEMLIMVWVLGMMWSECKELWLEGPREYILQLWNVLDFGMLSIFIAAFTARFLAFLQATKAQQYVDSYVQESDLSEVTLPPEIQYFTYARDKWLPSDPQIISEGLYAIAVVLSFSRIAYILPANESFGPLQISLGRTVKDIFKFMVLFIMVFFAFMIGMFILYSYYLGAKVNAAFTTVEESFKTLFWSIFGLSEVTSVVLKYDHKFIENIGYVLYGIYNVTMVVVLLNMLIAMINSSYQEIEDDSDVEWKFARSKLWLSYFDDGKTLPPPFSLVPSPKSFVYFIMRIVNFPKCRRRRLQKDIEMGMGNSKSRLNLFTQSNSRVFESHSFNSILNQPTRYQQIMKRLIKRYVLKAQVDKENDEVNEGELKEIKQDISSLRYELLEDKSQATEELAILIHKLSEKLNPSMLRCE
Description: In general, cells are provided which express a TRPC channel. Such cells can be produced using genetic methods known to a person skilled in the art. After having induced the expression of the TRPC channel, cells are usually plated into e.g. microtiter plates and grown. Usually the cells grow at the bottom of multiwell plates and are fixed. Thereafter, the cells are generally washed and loaded with a dye in a suitable loading buffer, preferably with a fluorescent dye such as fluo4am. After having removed the loading buffer, the cells are incubated with the test compound or modulator, in particular with a biochemical or chemical test compound as described above, e.g. in the form of a chemical compound library. Ca^2+ measurements can be carried out using e.g. a Fluorescence Imaging Plate Reader (FLIPR). To stimulate Ca^2+ influx through the TRPC channel a channel activator such as OAG should generally be applied.
TRPC3 and TRPC6 were directly activated by application of oleoyl-2-acetyl-sn-glycerol (OAG), a membrane permeable diacylglycerol analogue.
(A, C) Time-dependent changes of intracellular Ca^2+ concentration ([Ca^2+]i) of fluo-4-loaded induced TRPC3 HEK293 cells (A) and TRPC6 HEK293 cells (C). […] Measurements were performed in 96er well plates using FLIPR (Molecular Devices, Sunnyvale, Calif., USA) (B, D) Determination of norgestimates IC50 value on TRPC3 (B) and TRPC6 (D). […]

V1 receptor = biological target: T2, V1 receptor (Rattus norvegicus, UniProt P30560); assay: Calcium imaging of fura-2-loaded A7r5 cells stimulated with AVP; assay type: cell-based; conditions: 10 μM, 5 min preincubation, calcium-free solution, 100 nM AVP
T2 construct: endogenous in cells; host or cells: A7r5 (rat aortic smooth muscle)
T2 sequence (P30560 whole entry): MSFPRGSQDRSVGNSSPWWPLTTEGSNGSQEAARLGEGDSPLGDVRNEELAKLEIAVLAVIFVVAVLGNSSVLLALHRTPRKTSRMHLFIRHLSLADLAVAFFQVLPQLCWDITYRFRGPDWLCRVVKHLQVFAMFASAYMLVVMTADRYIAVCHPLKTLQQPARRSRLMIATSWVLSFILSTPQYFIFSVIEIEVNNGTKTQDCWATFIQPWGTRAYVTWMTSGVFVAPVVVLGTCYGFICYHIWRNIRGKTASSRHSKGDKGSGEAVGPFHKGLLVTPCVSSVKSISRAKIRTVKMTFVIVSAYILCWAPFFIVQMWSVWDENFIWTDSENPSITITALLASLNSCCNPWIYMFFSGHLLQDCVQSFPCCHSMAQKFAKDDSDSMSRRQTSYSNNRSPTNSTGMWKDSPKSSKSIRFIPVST
Description: (§1) The A7r5 cell line (derived from rat thoracic aorta smooth muscle cells) is a model system to investigate endogenous TRPC channels (Jung et al., 2002; Soboloff et al., 2005). The channels were indirectly stimulated by Arg^8-vasopressin (AVP), a vasoconstricting peptide that activates the endogenous vasopressin V1A receptor in these cells (Thibonnier et al., 1991).
Time-dependent changes of [Ca^2+]i; of fura-2-loaded A7r5 cells. Cells were preincubated with or without (control) 10 μM norgestimate (NG) in calcium-free standard extracellular solution (1 mM EGTA) for 5 min before stimulating the V1 receptor by application of 100 nM AVP. Data are represented as means of 33 cells (control) and 36 cells (10 μM norgestimate). Measurements were performed using a standard imaging setup (TILL Photonics, Gräfelfing, Germany).

[1] = tested on: native heteromeric TRPC6/7 channels; assay: Whole-cell patch clamp of AVP-stimulated A7r5 cells; assay type: cell-based, rat; conditions: 10 μM
Description: as §1
Perfusion of A7r5 cells with 100 nM AVP stimulated non-selective cationic currents that bore the biophysical hallmarks of TRPC channels (FIG. 5). […] When 10 μM norgestimate were applied to AVP-stimulated A7r5 cells, 86.5±6.0% (n=8) of the current measured at resting membrane potential were blocked and this effect was reversible (FIG. 5).
Effect of 10 μM norgestimate (NG) on whole-cell currents evoked by 100 nM AVP on A7r5 cells in standard extracellular solution (200 μM [Ca^2+]o). Whole cell currents recorded at −60 mV (left panels) and the corresponding I-V relationships are shown (right panels). The curves were obtained during voltage ramps from −100 to +80 mV. L-type voltage-gated Ca^2+ channels were blocked by 5 μM nimodipine (ND) during the whole experiment.

[2] = tested on: TRPC3/6/7 subfamily members versus TRPC4/5 subfamily members; assay: Fluorometric measurements, potency compared between TRPC subfamilies; assay type: cell-based; conditions: based on calculated inhibition by 10 μM norgestimate
Description: The 4-fold more potency of norgestimate on TRPC3/6/7 subfamily members than on TRPC4/5 subfamily members was evaluated with fluorometric measurements and based on the calculated inhibition by 10 μM norgestimate.

SMILES: C#C[C@]1(OC(C)=O)CC[C@H]2[C@@H]3CCC4=C/C(=N/O)CC[C@@H]4[C@H]3CC[C@@]21CC [norgestimate, D-17β-acetoxy-B-ethyl-17α ethinyl-gon-4-en-3-one oxime]
- IC50 (TRPC3; FLIPR, n=2): 2.8 ± 0.4 µM
- TRPC3-mediated Ca2+ influx following application of OAG (TRPC3; cells preincubated with 30 μM norgestimate): strongly reduced
- effect on V1 receptors (AVP-evoked [Ca2+]i) (V1 receptor): does not generally suppress
- reversibility of current block in A7r5 cells [1]: reversible
- AVP-stimulated current blocked in A7r5 cells ([1]; 100 nM AVP, resting membrane potential (-60 mV), n=8): 86.5±6.0%
- fold more potent on TRPC3/6/7 subfamily members than on TRPC4/5 subfamily members [2]: at least 4 fold
